Results on two compounds are retold here after EP2626066A1, “Combination therapy comprising selective VEGFR-2 inhibitors and MEK inhibitors” (Max-Planck-Gesellschaft zur Förderung der Wissenschaften …, priority 2012, dated 2013).

Experiment [1] has as its system H1650. Conditions: H1650, very low VEGFR2; daily oral gavage ZD6474 50 mg/kg, PD0325901 12mg/kg; start at about 50mm^3; Fig. 10. Here is the method: (§1) All animal procedures were approved by the local animal protection committee and the local authorities. H1975, H441 and H1650 cells (5x10^6 cells) were injected subcutaneously into male nude mice. […] Mice were treated daily by oral gavage of ZD6474 (50 mg/kg, solved in vehicle), PD0325901 (12mg/kg, dissolved in propylene glycol:water (1:1)), the combination of ZD6474 (50 mg/kg) and PD0325901 (12mg/kg) or vehicle detergent alone. Tumor size of tumors expressing high levels of VEGFR2 (H441, H1975) and tumor with low expression of VEGFR2 (H1650) were monitored measuring perpendicular diameters.
(§2) All animal procedures were approved by the local animal protection committee and the local authorities. High VEGFR2 expressing tumor cell H1975 and H441 (5x10^6 cells), and very low VEGFR2 expressing cells H1650 (5x10^6 cells) were injected subcutaneously into male nude mice. […] Mice were treated daily by oral gavage of ZD6474 (50 mg/kg, solved in vehicle), PD0325901 (12mg/kg, dissolved in propylene glycol:water (1:1)), the combination of ZD6474 (50 mg/kg) and PD0325901 (12mg/kg) or vehicle detergent alone. Tumor size of tumors expressing high levels of VEGFR2 (H441, H1975) and tumor with low expression of VEGFR2 (H1650) were monitored during treatment measuring perpendicular diameters.

Experiment [2] has as its system H1975. Here is the method:
as §1, §2

Experiment [3] deals with H441. Conditions: H441, high VEGFR2; daily oral gavage ZD6474 50 mg/kg, PD0325901 12mg/kg; start at about 50mm^3; Fig. 10. Here is the method: as §1, §2
Experiment [4] deals with H1975 cells. Put plainly: VEGF secretion ELISA assay, H1975 cells. The format is cell-based, human. Conditions: H1975 expressing ZD6474 resistance mutation of VEGFR2; in vitro. The method, then:
Cells were either treated with the indicated compounds or DMSO alone. After 4 hours cells were stimulated with 40 ng/ml of VEGF165, or incubated in medium containing DMSO only. Cells were then washed twice with PBS and supplemented with serum-free medium and allowed to secrete VEGF for 48 hours. Secretion of VEGF into cell culture supernatants was measured by Human VEGF Quantikine Kit (R&D Systems) according to manufacturer's instructions.

Take `O=C(NOC[C@H](O)CO)c1ccc(F)c(F)c1Nc1ccc(I)cc1F` [PD0325901, N-[(2R)-2,3-dihydroxypropoxy]-3,4-difluoro-2-[(2-fluoro-4-iodophenyl)amino]-benzamide]: the tumor volume result in experiment [1] was “increased alike”; in experiment [2] (H1975, high VEGFR2, daily oral gavage ZD6474 50 mg/kg, PD0325901 12mg/kg, start at about 50mm^3, Fig. 10) it was “did not reduce the tumor volume”; in experiment [3], “did not reduce the tumor volume”.
Turning to `COc1cc2c(Nc3ccc(Br)cc3F)ncnc2cc1OCC1CCN(C)CC1` [Vandetanib, N-(4-bromo-2-fluorophenyl)-6-methoxy-7-[(1-methylpiperidin-4-yl)methoxy]quinazolin-4-amine], the “tumor-growth inhibiting effects of the compound” value in experiment [2] (H1975 expressing ZD6474 resistance mutation of VEGFR2, in vivo, Fig. 1e) is reported as “suppressed”. Moreover, the “ZD6474-mediated inhibition of VEGF secretion” value in experiment [4] is reported as “abolished”.
